This note sets out measurements from patent US20140005417A1, “WATER-INSOLUBLE COLORING COMPOUND, INK, RESIST COMPOSITION FOR COLOR FILTER, AND THERMAL TRANSFER RECORDING SHEET” (CANON KABUSHIKI KAISHA, priority 2011, published 2014).

Data set [1] in a line: Light resistance evaluation of ink image samples (exposure test). Conditions: ink image sample with L* closest to 60; Weather-Ometer exposure 36 hours, black panel 50° C., chamber 40° C., RH 70%, 340 nm 0.39 W/m^2; less than 10 = good.
Protocol: The measurement conditions were as follows:
Relative Humidity: 70%, and
Before and after the exposure test, chromaticity (L*, a*, and b*) in the L*a*b* color system of the sample was measured with a reflection densitometer SpectroLino (manufactured by Gretag Macbeth AG). The color difference (ΔE) was calculated from the measured values of color properties by the following expression:
Color difference (ΔE)=[{(a* before the test)−(a* after the test)}^2+{(b* before the test)−(b* after the test)}^2+{(L* before the test)−(L* after the test)}^2]^1/2
When the ΔE after 36 hours was less than 10, the light resistance was evaluated as good.
A further data set can be described thus: physchem. Conditions: organic solvent or mixture, thermodynamic from solid.
Another data set in a line: Solubility in water. The format is physicochemical. From the text:
The water-insoluble coloring compound represented by Formula (1) of the present invention has a high affinity to an organic solvent. In the present invention, the term “water-insoluble” refers to that the solubility in water is less than 1% as mass percentage.

Description for physchem: The solubility in each solvent was visually evaluated by the following criteria:
A: completely dissolved (the solubility is excellent),
B: slightly remaining suspended solids (the solubility is good), and
C: not dissolved at all (the solubility is poor).

Turning to `CCN(CC)c1ccc2c(c1)Oc1cc(N(CC)CC)ccc1C21OC(=O)c2ccccc21` [(1)], in data set [1], the “ΔE (36 h)” value was found to be 15.8. The solubility in “physchem” (chloroform) is above 42.9 mg/mL; in “physchem” (ethyl acetate), below 42.9 mg/mL; in “physchem” (methanol), above 42.9 mg/mL; in “physchem” (toluene), below 42.9 mg/mL.

Consider `Nc1c(Oc2ccccc2)cc(O)c2c1C(=O)c1ccccc1C2=O` [(2)], for which the “ΔE (36 h)” value in data set [1] is on record as 12.3. Besides, the solubility in the data set “physchem” (chloroform), in “physchem” (ethyl acetate), in the data set “physchem” (methanol) and in the data set “physchem” (toluene) was below 42.9 mg/mL each time.

Turning to `Cc1ccc(/N=N/c2c(O)c(C(=O)O)cc3ccccc23)c(S(=O)(=O)O)c1` [(3)], in data set [1], the “ΔE (36 h)” value came out at 1.5. For the same compound, the solubility in “physchem” (chloroform), in “physchem” (ethyl acetate), in the data set “physchem” (methanol) and in “physchem” (toluene) was below 42.9 mg/mL throughout.

With `CC(=O)Nc1c(C)c(N=c2ccc3c(-c4ccccc4S(=O)(=O)O)c4ccc(Nc5c(C)c(NC(C)=O)c(C)c(NC(C)=O)c5C)cc4oc-3c2)c(C)c(NC(C)=O)c1C` [(11)], the “ΔE (36 h)” value in data set [1] was found to be 2.3.

In the case of `CCOC(=O)c1ccccc1C(=O)Nc1c(C)cc(C)c(N=c2ccc3c(-c4ccccc4S(=O)(=O)O)c4ccc(Nc5c(C)cc(C)c(NC(=O)c6ccccc6C(=O)OCC)c5C)cc4oc-3c2)c1C` [(12)], the “ΔE (36 h)” value in data set [1] is recorded as 3.5.

Take `CC(=O)Nc1c(C)cc(C)c(N=c2ccc3c(-c4ccccc4S(=O)(=O)O)c4ccc(Nc5c(C)c(NC(C)=O)c(C)c(NC(C)=O)c5C)cc4oc-3c2)c1C` [(13)]: in data set [1], the “ΔE (36 h)” value stood at 3.1.

In the case of `CCc1ccc(NC(C)=O)c(CC)c1N=c1ccc2c(-c3ccccc3S(=O)(=O)O)c3ccc(Nc4c(CC)ccc(NC(C)=O)c4CC)cc3oc-2c1` [(14)], in data set [1], the “ΔE (36 h)” value is 5.2.

With `CCc1ccc(NC(C)=O)c(CC)c1Nc1ccc2c(-c3ccccc3S(=O)(=O)O)c3ccc(=Nc4c(C)ccc(NC(C)=O)c4C)cc-3oc2c1` [(15)], the “ΔE (36 h)” value in data set [1] is on record as 5.0.

As to `CC(=O)Nc1ccc(C)c(N=c2ccc3c(-c4ccccc4S(=O)(=O)O)c4ccc(Nc5c(C(C)C)ccc(NC(C)=O)c5C(C)C)cc4oc-3c2)c1C` [(16)], the “ΔE (36 h)” value in data set [1] was determined as 5.8.

Consider `CCOc1cc(C)c(N=c2ccc3c(-c4ccccc4S(=O)(=O)O)c4ccc(Nc5c(C)cc(OCC)c(NC(C)=O)c5C)cc4oc-3c2)c(C)c1NC(C)=O` [(18)], for which the “ΔE (36 h)” value in data set [1] was 3.9.

Turning to `C=C(C)C(=O)Nc1c(C)cc(C)c(N=c2ccc3c(-c4ccccc4S(=O)(=O)O)c4ccc(Nc5c(C)cc(C)c(NC(=O)C(=C)C)c5C)cc4oc-3c2)c1C` [(21)], the “ΔE (36 h)” value in data set [1] turned out to be 7.8.

Consider `Cc1cc(C)c(NC(=O)c2cccnc2)c(C)c1N=c1ccc2c(-c3ccccc3S(=O)(=O)O)c3ccc(Nc4c(C)cc(C)c(NC(=O)c5cccnc5)c4C)cc3oc-2c1` [(22)], for which, in data set [1], the “ΔE (36 h)” value was determined as 5.0.

Take `CCCCCCCCCCCCCCCCCC(=O)Nc1c(C)cc(C)c(N=c2ccc3c(-c4ccccc4S(=O)(=O)O)c4ccc(Nc5c(C)cc(C)c(NC(=O)CCCCCCCCCCCCCCCCC)c5C)cc4oc-3c2)c1C` [(23)]: the “ΔE (36 h)” value in data set [1] came to 3.8.

Consider `CC(=O)Nc1c(C)cc(C)c(N=c2ccc3c(-c4ccccc4S(=O)(=O)O)c4ccc(Nc5c(C)cc(C)c(NC(C)=O)c5C)cc4oc-3c2)c1C` [Compound (5)], for which, in data set [1], the “ΔE (36 h)” value was 3.2. In addition, the solubility in water entry in the data set “Solubility in water” is recorded as “less than 1 % as mass percentage”.

`CCC(=O)Nc1c(C)cc(C)c(N=c2ccc3c(-c4ccccc4S(=O)(=O)O)c4ccc(Nc5c(C)cc(C)c(NC(=O)CC)c5C)cc4oc-3c2)c1C` [Compound (6)]: the “ΔE (36 h)” value in data set [1] is 3.3.

Consider `CCCC(=O)Nc1c(C)cc(C)c(N=c2ccc3c(-c4ccccc4S(=O)(=O)O)c4ccc(Nc5c(C)cc(C)c(NC(=O)CCC)c5C)cc4oc-3c2)c1C` [Compound (7)], for which, in data set [1], the “ΔE (36 h)” value was found to be 3.2.

For the compound `Cc1cc(C)c(NC(=O)C(C)C)c(C)c1N=c1ccc2c(-c3ccccc3S(=O)(=O)O)c3ccc(Nc4c(C)cc(C)c(NC(=O)C(C)C)c4C)cc3oc-2c1` [Compound (8)], in data set [1], the “ΔE (36 h)” value is listed as 2.9.

Consider `Cc1cc(C)c(NC(=O)c2ccccc2)c(C)c1N=c1ccc2c(-c3ccccc3S(=O)(=O)O)c3ccc(Nc4c(C)cc(C)c(NC(=O)c5ccccc5)c4C)cc3oc-2c1` [Compound (10)], for which, in data set [1], the “ΔE (36 h)” value came out at 3.8.
